Laboratory results taken from article PMC9403976, “Elucidating the path to Plasmodium prolyl-tRNA synthetase inhibitors that overcome halofuginone resistance” (Nature Communications, 2022).
Values joined by “and” are separate entries in the source; they are usually repeats but may differ in a detail not shown here. Identical values can stand only once. Like-named read-outs stand apart in the source and are kept apart here.

Legend:
[1] = biological target: HsProRS (Homo sapiens, UniProt P07814); experiment: TR-FRET ligand displacement assay with tracer MAT379 (CoraFluor-1-Halo and anti-His6 antibody formats); assay type: binding; design: made in house; host or cells: E. coli SoluBL-21; settings: for TR-FRET dose-response, normalized signal (SI Fig 11): individual replicates
[2] = biological target: T1, PfcProRS (Plasmodium falciparum, UniProt Q8I5R7); assay type: binding; settings: single replicates
T1 construct: made in house; host or cells: E. coli SoluBL-21
T1 sequence (Q8I5R7 249-746): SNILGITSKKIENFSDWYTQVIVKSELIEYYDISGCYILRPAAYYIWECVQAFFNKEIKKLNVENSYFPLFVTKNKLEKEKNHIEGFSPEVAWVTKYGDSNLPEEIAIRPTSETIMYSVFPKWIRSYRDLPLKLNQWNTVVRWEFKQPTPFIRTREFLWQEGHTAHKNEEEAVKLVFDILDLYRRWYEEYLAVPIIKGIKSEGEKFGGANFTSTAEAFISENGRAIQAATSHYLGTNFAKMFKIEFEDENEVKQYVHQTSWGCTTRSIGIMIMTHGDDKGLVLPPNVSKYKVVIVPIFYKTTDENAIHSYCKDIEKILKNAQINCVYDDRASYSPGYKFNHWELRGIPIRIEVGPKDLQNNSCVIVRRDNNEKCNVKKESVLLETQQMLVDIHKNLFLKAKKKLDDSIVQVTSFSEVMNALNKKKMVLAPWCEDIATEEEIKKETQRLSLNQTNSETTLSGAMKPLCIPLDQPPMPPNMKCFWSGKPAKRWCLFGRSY

Sequence of HsProRS (P07814 996-1512): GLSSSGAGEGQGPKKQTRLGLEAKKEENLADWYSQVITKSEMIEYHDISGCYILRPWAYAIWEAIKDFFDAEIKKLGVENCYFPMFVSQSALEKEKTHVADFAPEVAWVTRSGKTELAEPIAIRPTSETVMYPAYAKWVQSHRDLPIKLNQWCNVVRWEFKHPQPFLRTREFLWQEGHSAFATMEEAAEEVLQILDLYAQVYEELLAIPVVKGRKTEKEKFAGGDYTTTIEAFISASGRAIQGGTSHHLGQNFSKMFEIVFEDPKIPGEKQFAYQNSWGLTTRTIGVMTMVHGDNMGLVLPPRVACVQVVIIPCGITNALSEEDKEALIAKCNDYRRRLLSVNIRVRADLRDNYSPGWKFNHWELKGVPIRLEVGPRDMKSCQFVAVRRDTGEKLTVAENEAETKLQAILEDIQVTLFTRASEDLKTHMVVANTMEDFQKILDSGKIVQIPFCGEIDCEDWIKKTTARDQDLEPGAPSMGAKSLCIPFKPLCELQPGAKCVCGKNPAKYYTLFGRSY

With `NC1CCN(C(=O)Nc2nccnc2C(=O)NC2Cc3ccccc3C2)CC1` [compound 8] the IC50 [1] was over 10 µM, the “HsProRS % signal at 10 μM, + 100 μM proline” value ([1]; + 100 μM proline, 10 μM) was 64.1% and the “normalized TR-FRET ligand displacement signal, dose-response replicates (SI Fig 6)” value ([1]; Log[inhibitor] (M) -5.000) was 7.72E-01 and 8.67E-01 and 9.20E-01. The “TR-FRET dose-response, normalized signal (SI Fig 11)” value ([1]; Log[inhibitor] (M) -5.000) was 7.80E-01 and 8.21E-01 and 8.27E-01, the “normalized TR-FRET ligand displacement signal, dose-response replicates (SI Fig 6)” value ([1]; Log[inhibitor] (M) -5.301) was 9.51E-01 and 8.63E-01 and 8.95E-01 and the “TR-FRET dose-response, normalized signal (SI Fig 11)” value ([1]; Log[inhibitor] (M) -5.301) was 9.22E-01 and 8.53E-01 and 9.03E-01. The “normalized TR-FRET ligand displacement signal, dose-response replicates (SI Fig 6)” value ([1]; Log[inhibitor] (M) -5.601) was 9.39E-01 and 9.19E-01 and 9.88E-01, the “TR-FRET dose-response, normalized signal (SI Fig 11)” value ([1]; Log[inhibitor] (M) -5.601) was 8.79E-01 and 9.90E-01 and 8.75E-01 and the “normalized TR-FRET ligand displacement signal, dose-response replicates (SI Fig 6)” value ([1]; Log[inhibitor] (M) -5.904) was 9.40E-01 and 9.19E-01 and 1.05E+00. The “TR-FRET dose-response, normalized signal (SI Fig 11)” value ([1]; Log[inhibitor] (M) -5.904) was 9.88E-01 and 9.41E-01 and 9.72E-01, the “normalized TR-FRET ligand displacement signal, dose-response replicates (SI Fig 6)” value ([1]; Log[inhibitor] (M) -6.208) was 8.89E-01 and 1.04E+00 and 1.05E+00 and the “TR-FRET dose-response, normalized signal (SI Fig 11)” value ([1]; Log[inhibitor] (M) -6.208) was 9.38E-01 (2×) and 9.73E-01. The “normalized TR-FRET ligand displacement signal, dose-response replicates (SI Fig 6)” value ([1]; Log[inhibitor] (M) -6.509) was 1.02E+00 and 9.90E-01 and 9.84E-01, the “TR-FRET dose-response, normalized signal (SI Fig 11)” value ([1]; Log[inhibitor] (M) -6.509) was 9.67E-01 and 9.58E-01 and 9.39E-01 and the “normalized TR-FRET ligand displacement signal, dose-response replicates (SI Fig 6)” value ([1]; Log[inhibitor] (M) -6.796) was 1.02E+00 and 1.08E+00 and 1.11E+00. The “TR-FRET dose-response, normalized signal (SI Fig 11)” value ([1]; Log[inhibitor] (M) -6.796) was 9.44E-01 and 9.26E-01 and 9.45E-01, the “normalized TR-FRET ligand displacement signal, dose-response replicates (SI Fig 6)” value ([1]; Log[inhibitor] (M) -7.108) was 1.06E+00 and 1.03E+00 and 1.02E+00 and the “TR-FRET dose-response, normalized signal (SI Fig 11)” value ([1]; Log[inhibitor] (M) -7.108) was 8.82E-01 and 8.87E-01 and 8.97E-01. For the same compound, the “normalized TR-FRET ligand displacement signal, dose-response replicates (SI Fig 6)” value ([1]; Log[inhibitor] (M) -7.409) was 1.03E+00 (2×) and 9.94E-01, the “TR-FRET dose-response, normalized signal (SI Fig 11)” value ([1]; Log[inhibitor] (M) -7.409) was 8.83E-01 and 9.01E-01 and 8.97E-01 and the “normalized TR-FRET ligand displacement signal, dose-response replicates (SI Fig 6)” value ([1]; Log[inhibitor] (M) -7.710) was 9.60E-01 and 1.05E+00 and 1.02E+00. The “TR-FRET dose-response, normalized signal (SI Fig 11)” value ([1]; Log[inhibitor] (M) -7.710) was 9.46E-01 and 8.63E-01 and 9.47E-01, the “normalized TR-FRET ligand displacement signal, dose-response replicates (SI Fig 6)” value ([1]; Log[inhibitor] (M) -8.000) was 8.80E-01 and 1.08E+00 and 9.66E-01 and the “TR-FRET dose-response, normalized signal (SI Fig 11)” value ([1]; Log[inhibitor] (M) -8.000) was 9.68E-01 and 9.54E-01 and 9.46E-01. The “normalized TR-FRET ligand displacement signal, dose-response replicates (SI Fig 6)” value ([1]; Log[inhibitor] (M) -8.301) was 9.78E-01 and 9.63E-01 and 8.97E-01, the “TR-FRET dose-response, normalized signal (SI Fig 11)” value ([1]; Log[inhibitor] (M) -8.301) was 9.20E-01 and 9.17E-01 and 9.26E-01 and the “normalized TR-FRET ligand displacement signal, dose-response replicates (SI Fig 6)” value ([1]; Log[inhibitor] (M) -8.602) was 9.99E-01 and 9.46E-01 and 8.78E-01. The “TR-FRET dose-response, normalized signal (SI Fig 11)” value ([1]; Log[inhibitor] (M) -8.602) was 9.38E-01 and 9.59E-01 and 9.18E-01, the “normalized TR-FRET ligand displacement signal, dose-response replicates (SI Fig 6)” value ([1]; Log[inhibitor] (M) -9.000) was 8.55E-01 and 9.99E-01 and 1.05E+00 and the “TR-FRET dose-response, normalized signal (SI Fig 11)” value ([1]; Log[inhibitor] (M) -9.000) was 9.56E-01 and 9.64E-01 and 9.58E-01. The “normalized TR-FRET ligand displacement signal, dose-response replicates (SI Fig 6)” value ([1]; Log[inhibitor] (M) -9.301) was 1.04E+00 and 8.74E-01 and 1.01E+00, the “TR-FRET dose-response, normalized signal (SI Fig 11)” value ([1]; Log[inhibitor] (M) -9.301) was 9.54E-01 and 1.00E+00 (2×) and the “HsProRS % signal at 10 μM” value ([1]; no added proline/ATP (-), 10 μM) was 81.0%. The IC50 ([1]; read-out: HsProRS IC50 + 100 μM proline, + 100 μM proline) was over 10 µM, the “dose-response signal (normalized), SI Fig 8” value ([2]; Log[inhibitor] (M) -5.000) was 9.61E-01 and 8.92E-01 and 8.44E-01 and the “dose-response signal (normalized), SI Fig 8” value ([2]; Log[inhibitor] (M) -5.301) was 8.74E-01 and 9.88E-01 and 9.73E-01. The “dose-response signal (normalized), SI Fig 8” value ([2]; Log[inhibitor] (M) -5.601) was 9.98E-01 and 1.02E+00 and 1.04E+00, the “dose-response signal (normalized), SI Fig 8” value ([2]; Log[inhibitor] (M) -5.904) was 1.08E+00 and 1.04E+00 (2×) and the “dose-response signal (normalized), SI Fig 8” value ([2]; Log[inhibitor] (M) -6.208) was 1.22E+00 and 1.03E+00 and 1.05E+00. For the same compound, the “dose-response signal (normalized), SI Fig 8” value ([2]; Log[inhibitor] (M) -6.509) was 1.14E+00 and 1.03E+00 and 1.04E+00, the “dose-response signal (normalized), SI Fig 8” value ([2]; Log[inhibitor] (M) -6.796) was 1.01E+00 and 1.02E+00 and 1.08E+00 and the “dose-response signal (normalized), SI Fig 8” value ([2]; Log[inhibitor] (M) -7.108) was 9.50E-01 and 9.64E-01 and 1.00E+00. For the same compound, the “dose-response signal (normalized), SI Fig 8” value ([2]; Log[inhibitor] (M) -7.409) was 1.03E+00 and 1.01E+00 and 1.12E+00, the “dose-response signal (normalized), SI Fig 8” value ([2]; Log[inhibitor] (M) -7.710) was 1.12E+00 and 1.00E+00 and 9.44E-01 and the “dose-response signal (normalized), SI Fig 8” value ([2]; Log[inhibitor] (M) -8.000) was 1.00E+00 and 9.85E-01 and 1.03E+00. The “dose-response signal (normalized), SI Fig 8” value ([2]; Log[inhibitor] (M) -8.301) was 1.00E+00 and 9.83E-01 and 1.01E+00, the “dose-response signal (normalized), SI Fig 8” value ([2]; Log[inhibitor] (M) -8.602) was 1.04E+00 (2×) and 1.03E+00 and the “dose-response signal (normalized), SI Fig 8” value ([2]; Log[inhibitor] (M) -9.000) was 9.59E-01 and 1.02E+00 and 1.11E+00. The “dose-response signal (normalized), SI Fig 8” value ([2]; Log[inhibitor] (M) -9.301) was 9.77E-01 and 1.08E+00 and 1.13E+00.
